From ChEMBL document CHEMBL3886455, “Aminoindane derivatives, pharmaceutical compositions containing them, and their use in therapy” (2016)

Molecular target: T1, Sodium- and chloride-dependent glycine transporter 1 (Homo sapiens, UniProt P48067)
T1 sequence (P48067 whole entry): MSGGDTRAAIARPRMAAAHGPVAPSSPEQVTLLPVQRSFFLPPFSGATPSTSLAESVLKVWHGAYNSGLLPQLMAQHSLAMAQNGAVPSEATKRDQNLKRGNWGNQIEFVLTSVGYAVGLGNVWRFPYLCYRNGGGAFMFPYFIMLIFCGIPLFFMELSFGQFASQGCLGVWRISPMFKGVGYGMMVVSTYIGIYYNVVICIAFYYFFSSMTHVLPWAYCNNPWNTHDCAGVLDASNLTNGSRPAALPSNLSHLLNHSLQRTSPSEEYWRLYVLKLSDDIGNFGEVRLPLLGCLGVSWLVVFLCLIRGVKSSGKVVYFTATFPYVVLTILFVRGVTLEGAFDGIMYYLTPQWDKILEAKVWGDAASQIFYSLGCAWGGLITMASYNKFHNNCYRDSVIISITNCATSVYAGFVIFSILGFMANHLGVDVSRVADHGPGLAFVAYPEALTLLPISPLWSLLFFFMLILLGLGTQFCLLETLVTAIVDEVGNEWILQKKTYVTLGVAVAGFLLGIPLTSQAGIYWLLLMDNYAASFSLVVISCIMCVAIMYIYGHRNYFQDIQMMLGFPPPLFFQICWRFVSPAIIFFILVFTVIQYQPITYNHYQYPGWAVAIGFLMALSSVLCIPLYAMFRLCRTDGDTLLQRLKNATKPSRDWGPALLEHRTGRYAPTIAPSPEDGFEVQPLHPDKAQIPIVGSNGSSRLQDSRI
Assay: Radioligand Binding Assay: Radioligand binding to human GlyT1c transporter-expressing membranes was determined as described in Mezler et al., Molecular Pharmacology 74:1705-1715, 2008.

Ki: < 10 nM
Structure (SMILES): Cn1cnc(S(=O)(=O)NCc2cc3c(cc2F)C[C@@H](N)[C@H]3Cc2ccccc2)c1 (relative stereo)
